From patent US9475773B2, “NK3 receptor antagonist compound (NK3RA) for use in a method for the treatment of polycystic ovary syndrome (PCOS)” (ASTRAZENECA AB, priority 2013, dated 2016)

Columns and labels:
[1] = target: hERG channel (Homo sapiens, UniProt Q12809); assay: hERG channel in vitro (tail current); assay type: cell-based
[2] = system: rats; assay: Cardiovascular effects in rats; assay type: in vivo, rat; conditions: 46 mg/kg orally (100 μmol/kg), highest dose tested
[3] = system: rat; assay: Rat cocaine drug discrimination assay; assay type: in vivo; conditions: oral doses up to 46 mg/kg
[4] = system: rats; assay: Single and repeat-dose toxicology in rats; assay type: in vivo, rat
Method: Relative epididymis weight was lower at 2000 mg/kg/day.

[5] = system: LH, free and total testosterone; assay: Phase 2a randomised double blind placebo controlled study in women with PCOS (interim data); assay type: in vivo, human
Method: The pharmacodynamics, safety and pharmacokinetics of a compound of the present invention, NK3RA, is being further evaluated in a randomized, double-blind, placebo-controlled of NK3RA when given in multiple doses to females with PCOS.
In this type of clinical trial three doses of 20 mg once daily, 20 mg twice daily and 40 mg twice daily of test compound are being compared to placebo, and studied in parallel group design. […] Exploratory analyses will focus on changes from baseline of LH, DHEA, FSH, oestrogen, progesterone, prolactin, thyroid stimulating hormone, Insulin-like Growth Factor 1 [IGF-1] (as surrogate for GH) and HbA1c on days 7 and 28, as well as the impact of treatment on patient reported outcomes and HRQoL as measured by change from baseline at day 28.
The study population includes women with PCOS aged 18-45. The study will enroll 14 PCOS subjects per dose cohort with a total of N=56 for the entire study (2 drop outs per group assumed to give 12 evaluable subjects per dose). Patients are being dosed in the study over a duration of 28 days.
The effect of NK3RA on testosterone and LH is being assessed. […] LH pulse amplitude and frequency are mathematically modelled parameters from raw LH assay data.
Hourly measurement of FSH and free and total testosterone was performed during these periods of intensive monitoring.
Interim data have been obtained from a total of 20 women with Polycystic Ovary Syndrome (PCOS) who received treatment (NK3RA or placebo) in the ongoing phase 2a study. This study is a 28 day, randomised, double blind placebo controlled study with 4 treatment arms, NK3RA 20 mg once daily, 20 mg twice daily, 40 mg twice daily and placebo in women with PCOS.
Tables 1 to 3 below summarise the number of patients with data supportive, consistent and not supportive by treatment group (placebo and NK3RA).
In Table 1 the criteria used to determine what is supportive, consistent or not supportive are based on a qualitative evaluation of the changes in:
(a) LH area under the curve (AUC) between 0 and 8 hours AUC(0-8)
(b) LH pulsatility parameters derived through deconvolution (Veldhuis J D, Keenan D M, and Pincus S M. Motivations and methods for analyzing pulsatile hormone secretion. Endocrine Reviews. 2008, 29(7):823-864; and Liu P Y, Keenan D M, Kok P, Padmanabhan V, O'Byrne K T, and Veldhuis J D. Sensitivity and specificity of pulse detection using a new deconvolution method. Am J Physiol Endocrinol Metab. 2009; 297(2):538-44) • i) average mass per LH pulse in 8 hours • ii) total number of LH pulses in 8 hours.
For LH, there is a relationship between the LH AUC(0-8) and LH pulsatility. In particular, reductions in LH AUC(0-8) that would be considered to be disease modifying in PCOS will manifest themselves in pulsatility parameters of average mass per LH pulse in 8 hours and/or total number of LH pulses in 8 hours. Mass per pulse (MPP) is defined the amount of LH released per reconstructed LH pulse. The LH AUC(0-8) can be more reliably measured compared to the pulsatility parameters and therefore why both AUC(0-8) and pulsatility are considered in interpreting the level of LH reduction.
In Table 2 the criteria used to determine what is supportive, consistent or not supportive are based on a qualitative evaluation of the changes in average (on an individual patient basis) free testosterone.
In Table 3 the criteria used to determine what is supportive, consistent or not supportive are based on a qualitative evaluation of the changes in average (on an individual patient basis) total testosterone.
Expert judgement was necessary in the application of these criteria and therefore plots were evaluated independently by 3 AZ physicians. The most common result across the 3 physicians determined provided the overall evaluation for a single patient. These criteria were agreed between the 3 reviewers ahead of the plots being available for review. […]

[6] = rat 3 month study, 2000 mg/kg/day
[7] = decrease vs baseline on both days 7 and 28
[8] = decrease vs baseline on either days 7 and 28
[9] = increase vs baseline on both days 7 and 28

hERG channel, sequence (Q12809 whole entry): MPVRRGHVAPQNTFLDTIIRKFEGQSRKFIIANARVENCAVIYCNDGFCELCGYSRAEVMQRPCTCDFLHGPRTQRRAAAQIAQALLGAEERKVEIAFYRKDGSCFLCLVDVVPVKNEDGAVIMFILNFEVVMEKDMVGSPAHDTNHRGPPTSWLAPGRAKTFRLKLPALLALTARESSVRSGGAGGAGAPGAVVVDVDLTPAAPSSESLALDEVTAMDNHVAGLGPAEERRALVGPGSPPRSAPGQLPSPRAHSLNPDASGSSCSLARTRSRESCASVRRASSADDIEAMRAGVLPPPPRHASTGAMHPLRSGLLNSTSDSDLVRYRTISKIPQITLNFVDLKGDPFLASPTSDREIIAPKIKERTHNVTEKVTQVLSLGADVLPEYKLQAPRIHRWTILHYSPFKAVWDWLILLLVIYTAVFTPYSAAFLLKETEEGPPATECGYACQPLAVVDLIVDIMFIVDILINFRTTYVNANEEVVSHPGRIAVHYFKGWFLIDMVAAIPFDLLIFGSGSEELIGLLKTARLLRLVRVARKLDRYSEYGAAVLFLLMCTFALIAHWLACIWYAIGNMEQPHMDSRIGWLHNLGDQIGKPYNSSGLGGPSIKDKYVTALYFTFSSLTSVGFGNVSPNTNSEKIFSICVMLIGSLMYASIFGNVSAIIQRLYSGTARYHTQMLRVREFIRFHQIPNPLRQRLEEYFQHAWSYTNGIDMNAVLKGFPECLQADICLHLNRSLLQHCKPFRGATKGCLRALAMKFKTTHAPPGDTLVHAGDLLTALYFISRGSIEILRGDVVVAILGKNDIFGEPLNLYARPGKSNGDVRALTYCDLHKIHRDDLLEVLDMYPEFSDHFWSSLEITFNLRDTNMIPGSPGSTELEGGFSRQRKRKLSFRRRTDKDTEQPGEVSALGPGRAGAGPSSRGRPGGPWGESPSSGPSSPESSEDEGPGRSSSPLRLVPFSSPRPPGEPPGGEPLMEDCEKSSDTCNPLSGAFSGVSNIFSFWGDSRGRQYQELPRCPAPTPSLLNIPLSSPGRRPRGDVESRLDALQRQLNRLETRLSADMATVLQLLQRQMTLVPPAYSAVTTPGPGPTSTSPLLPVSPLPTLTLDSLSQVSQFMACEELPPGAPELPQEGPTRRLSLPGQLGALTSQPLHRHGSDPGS

CC[C@H](NC(=O)c1c(NS(C)(=O)=O)c(-c2ccccc2)nc2ccccc12)c1ccccc1 [NK3RA, 3-(methanesulfonamido)-2-phenyl-N-[(1S)-1-phenylpropyl]quinoline-4-carboxamide]
inhibition at 97 µM ([1]; human, 97 μM): 25%
activity at the hERG channel ([1]; in vitro): only weakly active
cardiovascular effects [2]: no cardiovascular effects
activity in cocaine drug discrimination [3]: no activity
histological changes ([4]; rat 3 month study): no NK3RA-related histological changes
absolute testis weight [4, 6]: lower
relative epididymis weight [4, 6]: lower
relative testis weight ([4]; rat 3 month study, 200 and 2000 mg/kg/day (dose-related)): lower than controls
findings at the highest doses ([4]; rats): increased liver weights with no histological correlate
findings in the female reproductive system, repeat-dose toxicology studies ([4]; rats): no findings in the female reproductive system
tolerability, multiple dosing for three month ([4]; rats, up to 2000 mg/kg/day): well tolerated
tolerability, single dosing ([4]; rats, up to the limit dose of 2000 mg/kg): well tolerated
LH: No. of patients Supportive ([5]; NK3RA arms pooled, LH AUC decreases on both days 7 and 28 AND MPP or number of pulses decrease): 2
LH: No. of patients Consistent ([5]; NK3RA arms pooled, LH AUC decreases on both days 7 and 28 OR MPP or number of pulses decrease): 3
LH: No. of patients Non-supportive ([5]; NK3RA arms pooled, LH AUC, MPP and number of pulses increase on day 7 or 28): 3
Free testosterone: No. of patients Supportive [5, 7]: 2
Total Testosterone: No. of patients Supportive [5, 7]: 3
Free testosterone: No. of patients Consistent [5, 8]: 4
Total Testosterone: No. of patients Consistent [5, 8]: 3
Free testosterone: No. of patients Non-supportive [5, 9]: 3
Total Testosterone: No. of patients Non-supportive [5, 9]: 4
